Test results from US8394801B2, “Quinoxaline derivatives and their use for treating benign and malignant tumour disorders” (Aeterna Zentaris GmbH, priority 2009, dated 2013).

Columns and labels:
HCT116 = test: Proliferation assay (Alamar Blue / XTT), HCT116; assay type: cell-based; conditions: Homo sapiens; cell line HCT-116 (colon)
MDA MB468 = test: Proliferation assay (Alamar Blue / XTT), MDA MB468; assay type: cell-based; conditions: Homo sapiens, MDA-MB-468; cell line MDA-MB468 (breast)
U87MG = test: Proliferation assay (Alamar Blue / XTT), U87MG; assay type: cell-based; conditions: Homo sapiens, U-87 MG; cell line U87MG (glioma)
PC-3 = test: Proliferation assay (Alamar Blue / XTT), PC-3; assay type: cell-based; conditions: Homo sapiens, cell line PC3 (prostate)
A549 = test: Proliferation assay (Alamar Blue / XTT), A549; assay type: cell-based; conditions: Homo sapiens; cell line A549 (lung)

With `CNC(=O)Nc1cnc2ccc(-c3cc(C)c(O)c(C)c3)cc2n1` [Compound 16, 1-[7-(4-Hydroxy-3,5-dimethylphenyl)quinoxalin-2-yl]-3-methylurea] the melting point was 251 °C.
For `CCNC(=O)Nc1cnc2ccc(-c3cc(C)c(O)c(C)c3)cc2n1` [Compound 19, 1-Ethyl-3-[7-(4-hydroxy-3,5-dimethylphenyl)quinoxalin-2-yl]urea], the melting point was 257 °C.
In the case of `Oc1c(Cl)cc(-c2ccc3ncc(NC(=S)NC4CCCCC4)nc3c2)cc1Cl` [Compound 21, 1-Cyclohexyl-3-[7-(3,5-dichloro-4-hydroxyphenyl)quinoxalin-2-yl]-thiourea], the melting point is reported as 284 °C.
Compound `Cc1cc(-c2ccc3ncc(NC(=S)NC4CCCC4)nc3c2)cc(C)c1O` [Compound 24, 1-Cyclopentyl-3-[7-(4-hydroxy-3,5-dimethylphenyl)quinoxalin-2-yl]-thiourea] has a melting point of 271 to 272 °C.
For `Cc1cc(-c2ccc3ncc(NC(=S)NC(C)(C)C)nc3c2)cc(C)c1O` [Compound 25, 1-tert-Butyl-3-[7-(4-hydroxy-3,5-dimethylphenyl)quinoxalin-2-yl]thiourea], the melting point was 238 to 240 °C.
`CCCCCNC(=O)Nc1cnc2ccc(-c3cc(C)c(O)c(C)c3)cc2n1` [Compound 33, 1-[7-(4-Hydroxy-3,5-dimethylphenyl)quinoxalin-2-yl]-3-pentylurea] gave a melting point of 274 to 275 °C.
With `CCCCCCNC(=O)Nc1cnc2ccc(-c3cc(C)c(O)c(C)c3)cc2n1` [Compound 35, 1-Hexyl-3-[7-(4-hydroxy-3,5-dimethylphenyl)quinoxalin-2-yl]urea] the melting point was 272 to 273 °C.
For `Cc1ccc(NC(=O)Nc2cnc3ccc(-c4cc(C)c(O)c(C)c4)cc3n2)cc1` [Compound 46, 1-[7-(4-Hydroxy-3,5-dimethylphenyl)quinoxalin-2-yl]-3-p-tolylurea], the melting point was > 300 °C.
With `Cc1cc(-c2ccc3ncc(NC(=O)Nc4ccc(Cl)c(Cl)c4)nc3c2)cc(C)c1O` [Compound 47, 1-(3,4-Dichlorophenyl)-3-[7-(4-hydroxy-3,5-dimethylphenyl)quinoxalin-2-yl]urea] the melting point was > 300 °C.
In the case of `COc1ccc(NC(=O)Nc2cnc3ccc(-c4cc(C)c(O)c(C)c4)cc3n2)cc1` [Compound 48, 1-[7-(4-Hydroxy-3,5-dimethylphenyl)quinoxalin-2-yl]-3-(4-methoxy-phenyl)urea], the melting point is reported as > 300 °C.
With `Cc1cc(-c2ccc3ncc(NC(=O)Nc4ccc5ccccc5c4)nc3c2)cc(C)c1O` [Compound 50, 1-[7-(4-Hydroxy-3,5-dimethylphenyl)quinoxalin-2-yl]-3-naphthalen-2-ylurea] the melting point was > 300 °C.
With `Cc1cc(-c2ccc3ncc(NC(=O)NC(C)(C)CC(C)(C)C)nc3c2)cc(C)c1O` [Compound 51, 1-[7-(4-Hydroxy-3,5-dimethylphenyl)quinoxalin-2-yl]-3-(1,1,3,3-tetra-methylbutyl)urea] the melting point was > 300 °C.
`Cc1cc(-c2ccc3ncc(NC(=O)Nc4cccnc4)nc3c2)cc(C)c1O` [Compound 52, 1-[7-(4-Hydroxy-3,5-dimethylphenyl)quinoxalin-2-yl]-3-pyridin-3-ylurea] gave a melting point of 298 to 300 °C.
Compound `Cc1cc(-c2ccc3ncc(NC(=O)N[C@H](C)C(C)C)nc3c2)cc(C)c1O` [Compound 53, 1-((R)-1,2-Dimethylpropyl)-3-[7-(4-hydroxy-3,5-dimethylphenyl)-quinoxalin-2-yl]urea] has a melting point of 265 °C.
`Cc1cc(-c2ccc3ncc(NC(=O)N[C@@H](C)C(C)C)nc3c2)cc(C)c1O` [Compound 54, 1-((S)-1,2-Dimethylpropyl)-3-[7-(4-hydroxy-3,5-dimethylphenyl)-quinoxalin-2-yl]urea] showed a melting point of 267 °C.
With `Cc1cc(-c2ccc3ncc(NC(=O)NCC(C)(C)C)nc3c2)cc(C)c1O` [Compound 67, 1-(2,2-Dimethyl-propyl)-3-[7-(4-hydroxy-3,5-dimethyl-phenyl)-quinoxalin-2-yl]-urea] the EC50 (HCT116) was 325 nM, the melting point was 275 to 276 °C and the EC50 (MDA MB468) was 384 nM. It also gave an EC50 (U87MG) of 222 nM, an EC50 (PC-3) of 188 nM and an EC50 (A549) of 352 nM.
In the case of `CC(C)NC(=O)Nc1cnc2ccc(-c3ccc(N)cc3)cc2n1` [Compound 68, 1-[7-(4-Amino-phenyl)-quinoxalin-2-yl]-3-isopropyl-urea], the EC50 (HCT116) is reported as 474 nM, the melting point is reported as > 300 °C and the EC50 (MDA MB468) is reported as 1670 nM. It also gave an EC50 (U87MG) of 529 nM, an EC50 (PC-3) of 453 nM and an EC50 (A549) of 626 nM.
With `CC(C)NC(=O)Nc1cnc2ccc(-c3cnn(C)c3)cc2n1` [Compound 70, 1-Isopropyl-3-[7-(1-methyl-1H-pyrazol-4-yl)-quinoxalin-2-yl]-urea] the EC50 (HCT116) was 564 nM, the melting point was 260 to 263 °C and the EC50 (MDA MB468) was 991 nM. The EC50 (U87MG) was 801 nM, the EC50 (PC-3) was 601 nM and the EC50 (A549) was 1320 nM.
With `CCCCCNC(=O)Nc1cnc2ccc(-c3cc(Cl)c(O)c(Cl)c3)cc2n1` [Compound 71, 1-[7-(3,5-Dichloro-4-hydroxy-phenyl)-quinoxalin-2-yl]-3-pentyl-urea] the melting point was 297 to 298 °C.
`CCCCNC(=O)Nc1cnc2ccc(-c3cc(Cl)c(O)c(Cl)c3)cc2n1` [Compound 72, 1-Butyl-3-[7-(3,5-dichloro-4-hydroxy-phenyl)-quinoxalin-2-yl]-urea] showed an EC50 (HCT116) of 1820 nM, a melting point of 297 to 298 °C and an EC50 (MDA MB468) of 779 nM. It also gave an EC50 (U87MG) of 3190 nM, an EC50 (PC-3) of 880 nM and an EC50 (A549) of 3260 nM.
In the case of `CCCNC(=O)Nc1cnc2ccc(-c3cc(Cl)c(O)c(Cl)c3)cc2n1` [Compound 73, 1-[7-(3,5-Dichloro-4-hydroxy-phenyl)-quinoxalin-2-yl]-3-propyl-urea], the EC50 (HCT116) is reported as 1560 nM, the melting point is reported as 295 to 296 °C and the EC50 (MDA MB468) is reported as 814 nM. For the same compound, the EC50 (U87MG) was 4140 nM, the EC50 (PC-3) was 1180 nM and the EC50 (A549) was 3360 nM.
With `CCNC(=O)Nc1cnc2ccc(-c3cc(Cl)c(O)c(Cl)c3)cc2n1` [Compound 74, 1-[7-(3,5-Dichloro-4-hydroxy-phenyl)-quinoxalin-2-yl]-3-ethyl-urea] the EC50 (HCT116) was 3090 nM, the melting point was 295 to 296 °C and the EC50 (MDA MB468) was 2100 nM. It also gave an EC50 (U87MG) of 10000 nM, an EC50 (PC-3) of 2200 nM and an EC50 (A549) of 3910 nM.
Compound `CCCCCCCNC(=O)Nc1cnc2ccc(-c3cc(Cl)c(O)c(Cl)c3)cc2n1` [Compound 75, 1-[7-(3,5-Dichloro-4-hydroxy-phenyl)-quinoxalin-2-yl]-3-heptyl-urea] has a melting point of 289 to 291 °C.
For `CC(C)NC(=O)Nc1cnc2ccc(-c3cc(Cl)c(O)c(Cl)c3)cc2n1` [Compound 76, 1-[7-(3,5-Dichloro-4-hydroxy-phenyl)-quinoxalin-2-yl]-3-isopropyl-urea], the melting point was 298 to 300 °C.
`CC(C)(C)NC(=O)Nc1cnc2ccc(-c3cc(Cl)c(O)c(Cl)c3)cc2n1` [Compound 77, 1-tert-Butyl-3-[7-(3,5-dichloro-4-hydroxy-phenyl)-quinoxalin-2-yl]-urea] showed a melting point of 292 to 295 °C.
`O=C(Nc1cnc2ccc(-c3cc(Cl)c(O)c(Cl)c3)cc2n1)NC1CCCCCC1` [Compound 78, 1-Cycloheptyl-3-[7-(3,5-dichloro-4-hydroxy-phenyl)-quinoxalin-2-yl]-urea] gave an EC50 (HCT116) of 809 nM, a melting point of 283 to 286 °C and an EC50 (MDA MB468) of 436 nM. For the same compound, the EC50 (U87MG) was 3110 nM, the EC50 (PC-3) was 306 nM and the EC50 (A549) was 1180 nM.
Compound `O=C(Nc1cnc2ccc(-c3cc(Cl)c(O)c(Cl)c3)cc2n1)NC1CCCCCCC1` [Compound 79, 1-Cyclooctyl-3-[7-(3,5-dichloro-4-hydroxy-phenyl)-quinoxalin-2-yl]-urea] has an EC50 (HCT116) of 503 nM, a melting point of 258 to 260 °C and an EC50 (MDA MB468) of 253 nM. For the same compound, the EC50 (U87MG) was 1160 nM, the EC50 (PC-3) was 300 nM and the EC50 (A549) was 1030 nM.
Compound `O=C(Nc1cnc2ccc(-c3cc(Cl)c(O)c(Cl)c3)cc2n1)NC1CCCC1` [Compound 81, 1-Cyclopentyl-3-[7-(3,5-dichloro-4-hydroxy-phenyl)-quinoxalin-2-yl]-urea] has a melting point of 295 to 296 °C.
`O=C(NCCCc1ccccc1)Nc1cnc2ccc(-c3cc(Cl)c(O)c(Cl)c3)cc2n1` [Compound 84, 1-[7-(3,5-Dichloro-4-hydroxy-phenyl)-quinoxalin-2-yl]-3-(3-phenyl-propyl)-urea] showed a melting point of 271 to 274 °C.
For `O=C(NCCc1ccccc1)Nc1cnc2ccc(-c3cc(Cl)c(O)c(Cl)c3)cc2n1` [Compound 85, 1-[7-(3,5-Dichloro-4-hydroxy-phenyl)-quinoxalin-2-yl]-3-phenethyl-urea], the EC50 (HCT116) was 1300 nM, the EC50 (MDA MB468) was 1610 nM and the EC50 (U87MG) was 495 nM. The EC50 (PC-3) was 1260 nM and the EC50 (A549) was 1840 nM.
In the case of `O=C(Nc1ccccc1)Nc1cnc2ccc(-c3cc(Cl)c(O)c(Cl)c3)cc2n1` [Compound 86, 1-[7-(3,5-Dichloro-4-hydroxy-phenyl)-quinoxalin-2-yl]-3-phenyl-urea], the melting point is reported as > 300 °C.
For `CCNC(=S)Nc1cnc2ccc(-c3cc(Cl)c(O)c(Cl)c3)cc2n1` [Compound 88, 1-[7-(3,5-Dichloro-4-hydroxy-phenyl)-quinoxalin-2-yl]-3-ethyl-thiourea], the melting point was 237 to 238 °C.
Compound `CCCNC(=S)Nc1cnc2ccc(-c3cc(Cl)c(O)c(Cl)c3)cc2n1` [Compound 89, 1-[7-(3,5-Dichloro-4-hydroxy-phenyl)-quinoxalin-2-yl]-3-propyl-thiourea] has a melting point of 237 to 239 °C.
In the case of `CC(C)NC(=S)Nc1cnc2ccc(-c3cc(Cl)c(O)c(Cl)c3)cc2n1` [Compound 91, 1-[7-(3,5-Dichloro-4-hydroxy-phenyl)-quinoxalin-2-yl]-3-isopropyl-thiourea], the melting point is reported as 276 to 278 °C.
With `Oc1c(Cl)cc(-c2ccc3ncc(NC(=S)NC4CCCCCC4)nc3c2)cc1Cl` [Compound 92, 1-Cycloheptyl-3-[7-(3,5-dichloro-4-hydroxy-phenyl)-quinoxalin-2-yl]-thiourea] the melting point was 281 to 283 °C.
`CC(C)NC(=O)Nc1cnc2ccc(-c3ccc(O)c(Cl)c3)cc2n1` [Compound 95, 1-[7-(3-Chloro-4-hydroxy-phenyl)-quinoxalin-2-yl]-3-isopropyl-urea] gave a melting point of 275 to 277 °C.
